From PubChem BioAssay AID330 (DTP/NCI, 2004)
Values joined by “and” are separate entries in the source; they are usually repeats but may differ in a detail not shown here. Equal entries are not always repeated. Inconclusive results and toxic doses are left out. Rule for the calls: active = survival T/C of 150% or more; inactive = T/C below 125% in these data.

Test system: P388 leukemia ip, CD2F1 mice, survival T/C
Test: NCI In Vivo Anticancer Drug Screen. Data for tumor model P388 Leukemia (intraperitoneal) in CD2F1 (CDF1) mice
Details: endpoint: median survival time, higher = longer survival
How it was run: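 Mice carrying the transplanted tumor received test compound or vehicle. Survival was recorded in each group, and the value is the treated-group measurement divided by that of the vehicle-treated control group.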

[1] = dose: 50.0 mg/kg/injection, schedule: Q01DX005 (ip), vehicle: Klucel (hydroxypropylcellulose) (HPC)
[2] = dose: 100.0 mg/kg/injection, schedule: Q01DX005 (ip), vehicle: Klucel (hydroxypropylcellulose) (HPC)
[3] = dose: 200.0 mg/kg/injection, schedule: Q01DX005 (ip), vehicle: Klucel (hydroxypropylcellulose) (HPC)
[4] = dose: 50.0 mg/kg/injection, schedule: Q01DX005 (ip), vehicle: saline with Tween-80
[5] = dose: 100.0 mg/kg/injection, schedule: Q01DX005 (ip), vehicle: saline with Tween-80
[6] = dose: 200.0 mg/kg/injection, schedule: Q01DX005 (ip), vehicle: saline with Tween-80
[7] = dose: 100.0 mg/kg/injection, schedule: Q01DX001 (ip), vehicle: saline with Tween-80
[8] = dose: 200.0 mg/kg/injection, schedule: Q01DX001 (ip), vehicle: saline with Tween-80
[9] = dose: 400.0 mg/kg/injection, schedule: Q01DX001 (ip), vehicle: saline with Tween-80
[10] = dose: 50.0 mg/kg/injection, schedule: Q01DX009 (ip), vehicle: saline with Tween-80
[11] = dose: 100.0 mg/kg/injection, schedule: Q01DX009 (ip), vehicle: saline with Tween-80

Measured: T/C

C=C1C2CCC3C(CCC4C5(C)CCCC43CN3CCOC35)(C2)C1O (configuration not stated)
inactive: dose: 1.0 mg/kg/injection, schedule: Q01DX009 (ip), vehicle: Klucel (hydroxypropylcellulose) (HPC) 95 % of control | dose: 2.0 mg/kg/injection, schedule: Q01DX009 (ip), vehicle: Klucel (hydroxypropylcellulose) (HPC) 97 % of control | dose: 4.0 mg/kg/injection, schedule: Q01DX009 (ip), vehicle: Klucel (hydroxypropylcellulose) (HPC) 98 % of control | dose: 8.0 mg/kg/injection, schedule: Q01DX009 (ip), vehicle: Klucel (hydroxypropylcellulose) (HPC) 97 % of control

CC(=O)Oc1ccc(/C(C)=N/NC(=O)C(C)SC(C)C(=O)N/N=C(\C)c2ccc(OC(C)=O)cc2)cc1 (configuration not stated)
inactive: [1] 108 % of control | [2] 105 % of control | [3] 106 % of control

CCOC(=O)N1C(C(=O)c2ccc(C)cc2)N(C2CCCCC2)C(c2ccccc2)N1C(=O)OCC (configuration not stated)
inactive: dose: 400.0 mg/kg/injection, schedule: Q01DX009 (ip), vehicle: saline with Tween-80 86 % of control

O[C@@]12CO[C@@H](c3ccc4c(c3)OCO4)[C@@H]1CO[C@H]2c1ccc2c(c1)OCO2
inactive: dose: 25.0 mg/kg/injection, schedule: Q01DX005 (ip), vehicle: Klucel (hydroxypropylcellulose) (HPC) 92 % of control | [1] 90 % of control | [2] 86 % of control | [3] 95 % of control

C=CC12CC(=O)N3CCc4ccccc4C3(C1)C2
inactive: dose: 100.0 mg/kg/injection, schedule: Q04DX002 (ip), vehicle: Klucel (hydroxypropylcellulose) (HPC) 110 % of control | dose: 200.0 mg/kg/injection, schedule: Q04DX002 (ip), vehicle: Klucel (hydroxypropylcellulose) (HPC) 100 % of control | dose: 400.0 mg/kg/injection, schedule: Q04DX002 (ip), vehicle: Klucel (hydroxypropylcellulose) (HPC) 97 % of control

c1cc[c]([Ge]([O][Ge]([c]2ccccc2)[c]2ccccc2)[c]2ccccc2)cc1.c1cc[c]([Ge]([O][Ge]([c]2ccccc2)[c]2ccccc2)[c]2ccccc2)cc1
inactive: [1] 89 % of control | [2] 91 % of control | [3] 89 % of control

NC(=S)n1nc(-c2ccccc2)c(N=Nc2ccc(Cl)cc2Cl)c1-c1ccccc1
inactive: [4] 94 % of control | [5] 88 % of control | [6] 96 % of control

COc1ccc(/C(CC2(O)C(=O)Nc3ccccc32)=N\NC(=O)NN)cc1O (configuration not stated)
inactive: [4] 101 % of control | [5] 107 % of control | [6] 100 % of control

CC(C)(CO)NC(=O)c1ccc(C(C)(C)C)cc1Br
inactive: [7] 99 % of control | [8] 99 % of control | [9] 100 % of control

Cc1ccc(NC(=S)SCc2ccc([N+](=O)[O-])cc2)cc1C
inactive: dose: 50.0 mg/kg/injection, schedule: Q01DX009 (ip), vehicle: suspension in saline 89 % of control | dose: 100.0 mg/kg/injection, schedule: Q01DX009 (ip), vehicle: suspension in saline 107 % of control | dose: 200.0 mg/kg/injection, schedule: Q01DX009 (ip), vehicle: suspension in saline 101 % of control

COCC1(C)CC2CCCCC2CC1(C)O (configuration not stated)
inactive: [4] 93 % of control | [5] 95 % of control | [6] 86 % of control

CC(/C=C/c1ccccc1)=N\NC(N)=O
inactive: dose: 50.0 mg/kg/injection, schedule: Q01DX009 (ip), vehicle: saline 105 % of control | dose: 100.0 mg/kg/injection, schedule: Q01DX009 (ip), vehicle: saline 115 % of control | dose: 200.0 mg/kg/injection, schedule: Q01DX009 (ip), vehicle: saline 118 % of control

OCc1cccc2c1Oc1ccccc1S2
inactive: [7] 98 % of control | [8] 98 % of control | [9] 95 % of control

CCOC(=O)C(N)CSC (configuration not stated)
inactive: dose: 50.0 mg/kg/injection, schedule: Q01DX009 (ip), vehicle: water 97 % of control | dose: 200.0 mg/kg/injection, schedule: Q01DX009 (ip), vehicle: water 103 % of control | dose: 400.0 mg/kg/injection, schedule: Q01DX009 (ip), vehicle: water 106 % of control

CC(C)CC(NC(=O)OCC1c2ccccc2-c2ccccc21)C(=O)O (configuration not stated)
inactive: [1] 101 % of control | [2] 100 % of control

CCOC(=O)c1c(C)c2c(n1C)CCc1sc(N)nc1-2
inactive: dose: 50.0 mg/kg/injection, schedule: Q04DX003 (ip), vehicle: Klucel (hydroxypropylcellulose) (HPC) 100 % of control | dose: 100.0 mg/kg/injection, schedule: Q04DX003 (ip), vehicle: Klucel (hydroxypropylcellulose) (HPC) 101 % of control | dose: 200.0 mg/kg/injection, schedule: Q04DX003 (ip), vehicle: Klucel (hydroxypropylcellulose) (HPC) 94 % of control

COc1ccc(CC#N)cc1OC
inactive: dose: 3.75 mg/kg/injection, schedule: Q01DX009 (ip), vehicle: saline with Tween-80 90 % of control | dose: 7.5 mg/kg/injection, schedule: Q01DX009 (ip), vehicle: saline with Tween-80 90 % of control | dose: 15.0 mg/kg/injection, schedule: Q01DX009 (ip), vehicle: saline with Tween-80 90 % of control

CCOC(CNc1cnc(NC(C)=O)[nH]c1=O)OCC
inactive: dose: 25.0 mg/kg/injection, schedule: Q01DX009 (ip), vehicle: saline with Tween-80 102 % of control | [10] 104 % of control | [11] 102 % of control | dose: 200.0 mg/kg/injection, schedule: Q01DX009 (ip), vehicle: saline with Tween-80 112 % of control

NC1=C(O)C(=O)C(c2cccnc2)O1 (configuration not stated)
inactive: dose: 30.0 mg/kg/injection, schedule: Q01DX005 (ip), vehicle: Klucel (hydroxypropylcellulose) (HPC) 102 % of control | dose: 60.0 mg/kg/injection, schedule: Q01DX005 (ip), vehicle: Klucel (hydroxypropylcellulose) (HPC) 96 % of control | dose: 120.0 mg/kg/injection, schedule: Q01DX005 (ip), vehicle: Klucel (hydroxypropylcellulose) (HPC) 86 % of control and 93 % of control | dose: 240.0 mg/kg/injection, schedule: Q01DX005 (ip), vehicle: Klucel (hydroxypropylcellulose) (HPC) 86 % of control

CC(C)(C)N=NNc1ccc(C#N)cc1
inactive: dose: 100.0 mg/kg/injection, schedule: Q04DX002 (ip), vehicle: saline with Tween-80 87 % of control | dose: 200.0 mg/kg/injection, schedule: Q04DX002 (ip), vehicle: saline with Tween-80 88 % of control | dose: 400.0 mg/kg/injection, schedule: Q04DX002 (ip), vehicle: saline with Tween-80 88 % of control

OCC(O)C(O)C(O)C(O)CO.[Cu+2].[Cu] (configuration not stated)
inactive: dose: 3.12 mg/kg/injection, schedule: Q01DX005 (ip), vehicle: Klucel (hydroxypropylcellulose) (HPC) 88 % of control | dose: 6.25 mg/kg/injection, schedule: Q01DX005 (ip), vehicle: Klucel (hydroxypropylcellulose) (HPC) 92 % of control

N=C(N)c1ccc(N=C(N)Nc2ccc(C(=N)N)cc2)cc1
inactive: dose: 6.25 mg/kg/injection, schedule: Q01DX009 (ip), vehicle: saline 95 % of control | dose: 12.5 mg/kg/injection, schedule: Q01DX009 (ip), vehicle: saline 95 % of control | dose: 25.0 mg/kg/injection, schedule: Q01DX009 (ip), vehicle: saline 95 % of control

CCCCOC(=O)/C=C(\Br)C(=O)OCCCC
inactive: [10] 114 % of control | [11] 124 % of control

CC(OCc1ccccc1)C(NC(=O)OC(C)(C)C)C(=O)O (configuration not stated)
inactive: [1] 113 % of control | [4] 103 % of control | [2] 94 % of control | [5] 100 % of control | [3] 96 % of control | [6] 98 % of control

Br/C(C=Nc1ccccc1)=C\Nc1ccccc1
inactive: dose: 100.0 mg/kg/injection, schedule: Q04DX003 (ip), vehicle: saline with Tween-80 118 % of control | dose: 200.0 mg/kg/injection, schedule: Q04DX003 (ip), vehicle: saline with Tween-80 109 % of control | dose: 400.0 mg/kg/injection, schedule: Q04DX003 (ip), vehicle: saline with Tween-80 104 % of control
